Patent US10563263B2, “Genetic polymorphisms associated with statin response and cardiovascular diseases, methods of detection and uses thereof” (CELERA CORPORATION, priority 2010, dated 2020)

Test system: CVD (CHD or stroke)
Assay: WOSCOPS: SNP by pravastatin treatment interaction, logistic regression (synergy index), CVD endpoint
Format: in vivo, human
Conditions: for OR (SNP x pravastatin treatment interaction): Imputed, WOSCOPS pravastatin vs placebo; for OR: WOSCOPS
From the text: CARE was a secondary prevention trial and WOSCOPS was a primary prevention trial.
The CHD endpoint was defined in the analyses herein of CARE as a composite endpoint of fatal CHD, definite non-fatal MI, or revascularization, and was defined in the analyses herein of WOSCOPS as a composite endpoint of death from CHD, nonfatal MI, or revascularization. In both the CARE and WOSCOPS analyses herein, the CVD endpoint was defined as a composite endpoint of CHD or stroke. […] Revascularization, which can include percutaneous transluminal coronary angioplasty (PTCA), stent placement, and coronary artery bypass graft (CABG), are medical interventions that indicate the presence of CHD.
Cohort and case-only study designs were used to identify SNPs associated with response to statin treatment.
For each SNP, a logistic regression model having treatment status as the dependent variable and SNP as the independent predictor variable was performed, with terms for age, sex and race included in the model as covariates. The anti-log of the regression coefficient corresponding to the SNP is an estimate of the synergy index (SI) (Davis et al., “Imputing gene-treatment interactions when the genotype distribution is unknown using case-only and putative placebo analyses-a new method for the Genetics of Hypertension Associated Treatment (GenHAT) study”, Statistics in Medicine 23: (2004), pages 2413-2427). The SI is a ratio of odds ratios: for example in the CARE and WOSCOPS studies, the SI represents the factor by which the odds-ratio of statin treatment, compared with placebo, among major homozygous individuals is multiplied by in order to obtain the odds-ratio of treatment vs. placebo among heterozygous individuals; and multiplied by a second time to obtain the odds-ratio of treatment vs. placebo in minor homozygous individuals. […] In a randomized clinical trial, genotype and treatment are independent by design.

Which results are given for CC[C@H](C)C(=O)O[C@H]1C[C@H](O)C=C2C=C[C@H](C)[C@H](CC[C@@H](O)C[C@@H](O)CC(=O)O)[C@H]21 [Pravastatin, pravastatin]?
OR (SNP x pravastatin treatment interaction) (SNP rs12820589, allele A1=G, model DOM): 1.936; OR (SNP x pravastatin treatment interaction) (SNP rs12831292, allele A1=G, model ADD): 0.6841; OR (SNP x pravastatin treatment interaction) (SNP rs12831292, allele A1=G, model DOM): 0.62; OR (SNP x pravastatin treatment interaction) (SNP rs13012636, allele A1=G, model REC): 1.901; OR (SNP x pravastatin treatment interaction) (SNP rs13038146, allele A1=C, model ADD): 1.407; OR (SNP x pravastatin treatment interaction) (SNP rs13038146, allele A1=C, model REC): 1.414; OR (SNP x pravastatin treatment interaction) (SNP rs13089860, allele A1=A, model DOM): 0.6221; OR (SNP x pravastatin treatment interaction) (SNP rs13102419, allele A1=T, model REC): 1.668; OR (synergy index), WOSCOPS, Prava vs Placebo (SNP rs13121569 (A1 G, A2 A), dom model, CVD endpoint, Caseonly): 0.78; OR (SNP x pravastatin treatment interaction) (SNP rs13194907, allele A1=A, model ADD): 1.964; OR (SNP x pravastatin treatment interaction) (SNP rs13194907, allele A1=A, model DOM): 2.136; OR (SNP x pravastatin treatment interaction) (SNP rs13195745, allele A1=A, model ADD): 1.964; OR (SNP x pravastatin treatment interaction) (SNP rs13195745, allele A1=A, model DOM): 2.136; OR (SNP x pravastatin treatment interaction) (SNP rs13265054, allele A1=T, model DOM): 0.6754; OR (SNP x pravastatin treatment interaction) (SNP rs13282131, allele A1=C, model ADD): 1.415; OR (SNP x pravastatin treatment interaction) (SNP rs13282131, allele A1=C, model REC): 1.595; OR (SNP x pravastatin treatment interaction) (SNP rs13387284, allele A1=A, model DOM): 0.5278; OR (SNP x pravastatin treatment interaction) (SNP rs13401462, allele A1=C, model DOM): 2.137; OR (SNP x pravastatin treatment interaction) (SNP rs13409045, allele A1=T, model ADD): 0.6931; OR (marker rs208025, source caseonly, pravastatin vs placebo): 1.52; OR (marker rs478859, source caseonly, pravastatin vs placebo): 1.33; OR (marker rs623400, source caseonly, pravastatin vs placebo): 0.62; OR (marker rs675163, source caseonly, pravastatin vs placebo): 0.71; OR (marker rs1536506, source caseonly, pravastatin vs placebo): 1.43; OR (marker rs1866386, source caseonly, pravastatin vs placebo): 0.81; OR (marker rs2869680, source caseonly, pravastatin vs placebo): 0.70; OR (marker rs2880563, source caseonly, pravastatin vs placebo): 1.51; OR (marker rs4251580, source caseonly, pravastatin vs placebo): 0.55; OR (marker rs4689078, source caseonly, pravastatin vs placebo): 1.45; OR (marker rs5764592, source caseonly, pravastatin vs placebo): 1.87; OR (marker rs6040760, source caseonly, pravastatin vs placebo): 1.23; OR (marker rs7623808, source caseonly, pravastatin vs placebo): 4.22; OR (marker rs7915250, source caseonly, pravastatin vs placebo): 0.81; OR (marker rs10106852, source caseonly, pravastatin vs placebo): 1.56; OR (marker rs10460737, source caseonly, pravastatin vs placebo): 0.10; OR (marker rs10817479, source caseonly, pravastatin vs placebo): 1.37; OR (marker rs12286877, source caseonly, pravastatin vs placebo): 2.30; OR (marker rs12608167, source caseonly, pravastatin vs placebo): 0.66; OR (marker rs17310169, source caseonly, pravastatin vs placebo): 0.81; OR (marker rs77638540, source caseonly, pravastatin vs placebo): 0.68; OR (rs198461 allele C DOM Imputed): 0.4755; OR (rs208757 allele G ADD Imputed): 1.353; OR (rs208757 allele G DOM Imputed): 1.453; OR (rs331555, add, Caseonly, CVD, pravastatin vs placebo): 0.77; OR (rs1076733, dom, Caseonly, CVD, pravastatin vs placebo): 0.62; OR (rs1182878, add, Caseonly, CVD, pravastatin vs placebo): 0.75; OR (rs1474396, dom, Caseonly, CVD, pravastatin vs placebo): 1.73; OR (rs1782328 allele A ADD Imputed): 0.5789; OR (rs1796337 allele T DOM Imputed): 0.5422; OR (rs1798083 allele C DOM Imputed): 0.4733; OR (rs1798085 allele T DOM Imputed): 0.4727; OR (rs1798086 allele T DOM Imputed): 0.4689; OR (rs1798089 allele C REC Imputed): 1.806; OR (rs1798090 allele C REC Imputed): 1.806; OR (rs1832222 allele G DOM Imputed): 1.351; OR (rs1838104 allele A ADD Imputed): 0.6393; OR (rs1868616 allele G ADD Imputed): 0.7123; OR (rs1874313 allele A DOM Imputed): 0.6182
